The results in this text go back to patent US12419890B2, “Administration of sumo-activating enzyme inhibitor and checkpoint inhibitors” (Takeda Pharmaceutical Company Limited, priority 2019, dated 2025).

For assay [1], the target named is T1, SUMO-activating enzyme (Homo sapiens, UniProt Q9UBT2).
T1 sequence (Q9UBT2 1-640): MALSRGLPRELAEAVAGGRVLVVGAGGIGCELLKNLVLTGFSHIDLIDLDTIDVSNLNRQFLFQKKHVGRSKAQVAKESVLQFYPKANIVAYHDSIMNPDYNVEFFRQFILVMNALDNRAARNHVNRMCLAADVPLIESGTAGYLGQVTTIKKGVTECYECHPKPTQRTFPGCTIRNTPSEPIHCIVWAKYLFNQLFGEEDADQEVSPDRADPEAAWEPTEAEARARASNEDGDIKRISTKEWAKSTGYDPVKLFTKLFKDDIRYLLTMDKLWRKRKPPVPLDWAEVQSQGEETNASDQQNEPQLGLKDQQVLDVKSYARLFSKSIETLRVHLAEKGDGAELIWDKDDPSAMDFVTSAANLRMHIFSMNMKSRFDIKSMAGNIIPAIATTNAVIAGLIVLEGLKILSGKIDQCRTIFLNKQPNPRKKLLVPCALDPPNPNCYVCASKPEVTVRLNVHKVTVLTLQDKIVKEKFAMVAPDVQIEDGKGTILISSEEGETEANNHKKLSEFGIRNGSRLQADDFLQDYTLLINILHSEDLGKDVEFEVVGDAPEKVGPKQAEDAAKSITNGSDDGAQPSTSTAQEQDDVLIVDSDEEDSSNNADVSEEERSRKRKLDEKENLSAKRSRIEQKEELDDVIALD
T1 sequence (Q9UBE0 1-346 partner): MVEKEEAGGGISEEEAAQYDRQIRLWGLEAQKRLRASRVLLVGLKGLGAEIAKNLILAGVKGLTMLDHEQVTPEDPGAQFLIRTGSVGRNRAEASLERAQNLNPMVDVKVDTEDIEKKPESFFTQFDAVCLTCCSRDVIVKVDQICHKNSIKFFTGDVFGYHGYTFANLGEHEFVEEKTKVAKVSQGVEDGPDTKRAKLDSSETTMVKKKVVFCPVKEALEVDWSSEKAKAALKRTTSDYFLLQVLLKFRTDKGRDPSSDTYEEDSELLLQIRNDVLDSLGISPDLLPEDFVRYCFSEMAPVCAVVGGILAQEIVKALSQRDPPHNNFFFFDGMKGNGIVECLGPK
In words: biochemical assays of SUMO-activating enzyme. The source says:
SAE inhibitors, as disclosed herein, are described, for example, in US 2016/0009744 and U.S. Pat. No. 9,695,154. They may be prepared by methods known to one skilled in the art and/or according to the methods described in US 2016/0009744 and U.S. Pat. No. 9,695,154, which is hereby incorporated by reference in its entirety. Central to the mechanism of action of useful SAE inhibitors, such as Compound I-263a, in combinations and methods of the present disclosure is production of type 1 IFNs and induction of an innate immune response with activation of dendritic cells, natural killer (NK) cells and macrophages.

The subject of assay [2] is A20 syngeneic mouse B-cell lymphoma-derived subcutaneous tumor. In words: A20 Study 3: mouse A20 syngeneic tumor model, individual tumor volume. In kind it is in vivo. Here is the method:
A20 Study 3: A20 is a mouse B-cell lymphoma cell line. A20 mouse syngeneic tumor model was generated by subcutaneous inoculation with 1.0×10^6 A20 cells (cell suspension) in 8 weeks old female BALB/c mice (Jackson Laboratory, 600 Main St, Bar Harbor, ME) in the flank. When the mean tumor volume reached approximately 50 mm^3, the animals were randomized into one vehicle control and three treatment groups (n=7/group). Mice were then dosed with 20% HPbCD or Compound I-263a or anti-mouse PD-1 antibody over a 11-day period. Tumor growth and body weight were measured twice per week during the treatment and post-treatment periods, and mice were humanely euthanized once they had reached their humane endpoint.
Study 3: A 1.65 mg/mL stock solution of Compound I-263a was formulated weekly in 20% HPβCD and administered intravenously (IV) based on exact animal body weight on each day of treatment, using a dosing volume of 10 mL/kg body weight. Final doses received were 15 mg/kg. Dosing volume for Compound I-263a was 0.2 mL. […]
Tumors were measured twice weekly using vernier calipers. Tumor volumes were calculated using standard equation: V=W^2×L/2, where V=volume, W=width, and L=length for the tumor. […] Tumor size and body weight were measured twice a week for the duration of the study. […]

Regarding `Cc1sc(C(=O)c2cncnc2N[C@@H]2C[C@H](COS(N)(=O)=O)[C@@H](O)C2)cc1[C@@H]1NCCc2ccc(Cl)cc21` [Compound I-263a, [(1R,2S,4R)-4-{[5-({4-[(1R)-7-chloro-1,2,3,4-tetrahydroisoquinolin-1-yl]-5-methyl-2-thienyl}carbonyl)pyrimidin-4-yl]amino}-2-hydroxycyclopentyl]methyl sulfamate], the “inhibition of SUMO-activating enzyme activity” value in assay [1] (mechanism-based inhibitor forming a covalent adduct with SUMO) was “potently inhibits enzyme activity”. In addition, the “selectivity for SUMO-activating enzyme” value in assay [1] (over ubiquitin-activating enzymes, Nedd8-activating enzyme, and autophagy related 7 enzyme) is “Strong selectivity”. For the same compound, the “inhibition of tumor growth” value in assay [2] (Compound I-263a 15 mg/kg IV QWx1 (Day 1), 7 tumors/group) is “modest inhibition”. Also, the tumors in stasis in assay [2] (stasis to day 8 of treatment, followed by rapid growth, out of 7 implanted, Compound I-263a 15 mg/kg IV Day 1) amounted to 2.
